Tested on: grass and broad leaf
Assay: Grass and broad leaf kill, cocktails compared against glyphosate (5%)
Type: in vivo
Description: This cocktail can be mixed with water prior to use at 1:5 parts of water to 1:200 parts of water. The higher the concentration of the cocktail the faster the kill of the weeds. Cocktail I was compared against glyphosate (5%).
Compared against Glyphosate at 5%:
Same as Cocktail I but add concentrated glyphosate to yield 1% glyphosate in mix.

With `O=C(O)CNCP(=O)(O)O` [Glyphosate, N-(phosphonomethyl) glycine] the “Grass and broad leaf kill, 24 hours” value (24 hours, Cocktail I vs glyphosate at 5%) was 10%, the “Broad leaf and grass kill, 24 hours” value (24 hours, Cocktail II vs glyphosate at 5%) was 10% and the “Broad leaf and grass kill, 24 hours” value (24 hours, Cocktail III (1% glyphosate in mix) vs glyphosate at 5%) was 10%. For the same compound, the “Broad leaf and grass kill, 2 days” value (Cocktail II vs glyphosate at 5%) was 20%, the “Broad leaf and grass kill, 2 days” value (Cocktail III (1% glyphosate in mix) vs glyphosate at 5%) was 20% and the “Grass and broad leaf kill, 7 days” value (7 days, Cocktail I vs glyphosate at 5%) was 100%. The “Broad leaf and grass kill, 7 days” value (7 days, Cocktail II vs glyphosate at 5%) was 100% and the “Broad leaf and grass kill, 7 days” value (7 days, Cocktail III (1% glyphosate in mix) vs glyphosate at 5%) was 100%.

From patent publication US20060040827A1, “Environmentally safe herbicide, fungicide, bactericide and adjuvant composition” (priority 2004, published 2006)
